The values that follow come from patent publication US9795139B2, “Molecules having pesticidal utility, and intermediates, compositions, and processes, related thereto” (priority 2015, dated 2017).

Assay type in all cases: in vivo
For data set [1], the system named is Green Peach Aphid (Myzus persicae, MYZUPE). Briefly: Bioassay on Green Peach Aphid (GPA), foliar spray on cabbage seedlings. Conditions: 72 h, 200 ppm foliar spray on cabbage seedlings, three days, Abbott corrected % control, read-out: GPA % Control (or Mortality) rating. As for the experimental part: Certain molecules disclosed in this document were tested against GPA using procedures described in the following example. In the reporting of the results, the “GPA & YFM Rating Table” was used (See Table Section).
Cabbage seedlings grown in 3-inch pots, with 2-3 small (3-5 cm) true leaves, were used as test substrate. The seedlings were infested with 20-50 GPA (wingless adult and nymph stages) one day prior to chemical application. Four pots with individual seedlings were used for each treatment. Test molecules (2 mg) were dissolved in 2 mL of acetone/methanol (1:1) solvent, forming stock solutions of 1000 ppm test molecule.
The stock solutions were diluted 5× with 0.025% Tween 20 in water to obtain the solution at 200 ppm test molecule. A hand-held aspirator-type sprayer was used for spraying a solution to both sides of […] leaves until runoff. Reference plants (solvent check) were sprayed with the diluent only containing 20% by volume of acetone/methanol (1:1) solvent. Treated plants were held in a holding room for three days at approximately 25° C. and ambient relative humidity (RH) prior to grading. Evaluation was conducted by counting the number of live aphids per plant under a microscope. Percent control was measured using Abbott's correction formula (W. S. Abbott, “A Method of Computing the Effectiveness of an Insecticide” J. Econ. Entomol. 18 (1925), pp. 265-267) as follows. Corrected % Control=100*(X−Y)/X where X=No. of live aphids on solvent check plants and Y=No. of live aphids on treated plants. The results are indicated in the table entitled “Table ABC: Biological Results” (See Table Section).

The subject of data set [2] is Cabbage Looper (Trichoplusia ni, TRIPNI). Briefly: Bioassay on Cabbage Looper (CL), 128-well diet tray assay. The following applies: 168 h, 50 μg/cm^2 on artificial diet, second instar larvae, 25° C., five to seven days, average of eight wells, read-out: CL % Control (or Mortality) rating. In outline:
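Second-instar larvae, one to five per well, placed on artificial diet treated with 50 μg/cm^2 test molecule in 90:10 acetone-water, dried before infestation. Held 5–7 days at 25° C, 14:10 light-dark; percent mortality averaged over eight wells.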

The subject of data set [3] is Yellow Fever Mosquito (Aedes aegypti, AEDSAE). Conditions: about 1 day-old larvae, 96-well plate from 4000 ppm DMSO master, 3 days at room temperature. In outline: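 Aedes aegypti larvae (about 1 day old) in liver-powder water were added to plates dispensed from DMSO master plates (4000 ppm stock) diluted with 90:10 water/acetone; six replicate plates per master. Lidded plates were held at room temperature for 3 days, then each well was scored for mortality.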

Data set [4] relates to Beet Armyworm (Spodoptera exigua, LAPHEG). Nature of the data set: Bioassay on Beet Armyworm (BAW), 128-well diet tray assay. Conditions: 168 h, 50 μg/cm^2 on artificial diet, second instar larvae, 25° C., five to seven days, average of eight wells, read-out: BAW % Control (or Mortality) rating. The procedure, abridged:
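Artificial diet surface-treated with 50 μg/cm^2 test molecule in 90:10 acetone-water, dried, then infested with one to five second instar larvae per well. Held covered and vented at 25° C., 14:10 light-dark for five to seven days; percent mortality recorded per well and averaged over eight wells.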

On to `O=C(NC1CC(F)(F)C1)c1cc(NC(=O)[C@H]2[C@H](c3cccc(C(F)(F)F)c3)C2(Cl)Cl)ccc1Cl` (relative stereo) [Molecule F19, trans-2-Chloro-5-(2,2-dichloro-3-(3-(trifluoromethyl)phenyl)cyclopropanecarboxamido)-N-(3,3-difluorocyclobutyl)benzamide], for which the mortality at 200 ppm in data set [1] was 80 to 100%. Moreover, the mortality at 50 µg/cm2 in data set [2] and in data set [4] was 50 to 100% each time. Also, the “YFM % Control (or Mortality) rating” value in data set [3] is recorded as “B (More than 0-Less than 80)”.

`O=C(NC1CC(F)(F)C1)c1cc(NC(=O)[C@H]2[C@H](c3ccc(OC(F)(F)F)c(Cl)c3)C2(Cl)Cl)ccc1Cl` (relative stereo) [Molecule F21, trans-2-Chloro-5-(2,2-dichloro-3-(3-chloro-4-(trifluoromethoxy)phenyl)cyclopropanecarboxamido)-N-(3,3-difluorocyclobutyl)benzamide]: the mortality at 200 ppm in data set [1] fell in the range of 80 to 100%. Further, the mortality at 50 µg/cm2 in data set [2] and in data set [4] was 50 to 100% in each case. Also, the “YFM % Control (or Mortality) rating” value in data set [3] is reported as “A (80-100)”.

`CN(C(=O)c1cc(NC(=O)[C@H]2[C@H](c3cc(Cl)cc(Cl)c3)C2(Cl)Cl)ccc1Cl)C1CC(F)(F)C1` (relative stereo) [Molecule F32, trans-2-Chloro-5-(2,2-dichloro-3-(3,5-dichlorophenyl)cyclopropanecarboxamido)-N-(3,3-difluorocyclobutyl)-N-methylbenzamide]: in data set [1], the mortality at 200 ppm fell in the range of 80 to 100%. Also, the mortality at 50 µg/cm2 in data set [2] and in data set [4] was 50 to 100% throughout. Also, the “YFM % Control (or Mortality) rating” value in data set [3] is “A (80-100)”.

Consider `CN(C(=O)c1cc(NC(=O)[C@H]2[C@H](c3cc(Cl)c(Cl)c(Cl)c3)C2(Cl)Cl)ccc1Cl)C1CC(F)(F)C1` (relative stereo) [Molecule F34, trans-2-Chloro-5-(2,2-dichloro-3-(3,4,5-trichlorophenyl)cyclopropanecarboxamido)-N-(3,3-difluorocyclobutyl)-N-methylbenzamide], for which the mortality at 200 ppm in data set [1] was 0 to 80%. The mortality at 50 µg/cm2 in data set [2] and in data set [4] was 50 to 100% throughout. Also, the “YFM % Control (or Mortality) rating” value in data set [3] is “A (80-100)”.

As to `O=C(NC1CCC1)c1cc(NC(=O)[C@H]2[C@H](c3ccc(Cl)c(Cl)c3)C2(Cl)Cl)ccc1Cl` (relative stereo) [Molecule F41, trans-2-Chloro-N-cyclobutyl-5-(2,2-dichloro-3-(3,4-dichlorophenyl)cyclopropanecarboxamido)benzamide], the mortality at 200 ppm in data set [1] lay in the range of 80 to 100%. Further, the mortality at 50 µg/cm2 in data set [2] and in data set [4] was 50 to 100% each time. In addition, the “YFM % Control (or Mortality) rating” value in data set [3] was “A (80-100)”.

Take `Cc1cc([C@H]2[C@H](C(=O)Nc3ccc(Cl)c(C(=O)NC4CC(F)(F)C4)c3)C2(Cl)Cl)cc(Cl)c1Cl` (relative stereo) [Molecule F50, trans-2-Chloro-5-(2,2-dichloro-3-(3,4-dichloro-5-methylphenyl)cyclopropanecarboxamido)-N-(3,3-difluorocyclobutyl)benzamide]: the mortality at 200 ppm in data set [1] lay within 0 to 80%. For the same compound, the mortality at 50 µg/cm2 in data set [2] and in data set [4] was 50 to 100% in each case. Besides, the “YFM % Control (or Mortality) rating” value in data set [3] is “D (No activity noticed in this bioassay)”.

In the case of `O=C(NC1CC(F)(F)C1)c1cc(NC(=O)[C@H]2[C@H](c3cc(Cl)cc(Cl)c3)C2(Cl)Br)ccc1Cl` (relative stereo) [Molecule F71, trans-5-(2-Bromo-2-chloro-3-(3,5-dichlorophenyl)cyclopropane-1-carboxamido)-2-chloro-N-(3,3-difluorocyclobutyl)benzamide], in data set [1], the mortality at 200 ppm was 80 to 100%. For the same compound, the mortality at 50 µg/cm2 in data set [2] and in data set [4] was 50 to 100% in each case. Moreover, in data set [3], the “YFM % Control (or Mortality) rating” value is given as “B (More than 0-Less than 80)”.

Regarding `N#Cc1cc(Cl)cc([C@H]2[C@H](C(=O)Nc3ccc(Cl)c(C(=O)NC4(C#N)CC4)c3)C2(Cl)Cl)c1` (relative stereo) [Molecule F78, trans-2-Chloro-N-(1-cyanocyclopropyl)-5-(2,2-dichloro-3-(3-chloro-5-cyanophenyl)cyclopropane-1-carboxamido)benzamide], the mortality at 200 ppm in data set [1] was 0 to 80%. In addition, the mortality at 50 µg/cm2 in data set [2] and in data set [4] was 50 to 100% each time. The “YFM % Control (or Mortality) rating” value in data set [3] is “D (No activity noticed in this bioassay)”.

On to `O=C(NC1CC(F)(F)C1)c1cc(NC(=O)[C@H]2[C@H](c3ccc(F)c(Cl)c3)C2(Cl)Cl)ccc1Cl` (relative stereo) [PF7, trans-2-Chloro-5-(2,2-dichloro-3-(3-chloro-4-fluorophenyl)cyclopropane-1-carboxamido)-N-(3,3-difluorocyclobutyl)benzamide], for which the mortality at 200 ppm in data set [1] is 80 to 100%. Moreover, the mortality at 50 µg/cm2 in data set [2] and in data set [4] was 50 to 100% throughout. Moreover, the “YFM % Control (or Mortality) rating” value in data set [3] is given as “D (No activity noticed in this bioassay)”.

As to `O=C(NC1CC(F)(F)C1)c1cc(NC(=O)[C@H]2[C@H](c3cc(Cl)cc(Br)c3)C2(Cl)Cl)ccc1Cl` (relative stereo) [PF8, trans-5-(3-(3-Bromo-5-chlorophenyl)-2,2-dichlorocyclopropane-1-carboxamido)-2-chloro-N-(3,3-difluorocyclobutyl)benzamide], in data set [1], the mortality at 200 ppm was 80 to 100%. The mortality at 50 µg/cm2 in data set [2] and in data set [4] was 50 to 100% each time. The “YFM % Control (or Mortality) rating” value in data set [3] was “D (No activity noticed in this bioassay)”.

On to `N#CC1(NC(=O)c2cc(NC(=O)C3C(c4ccc(Cl)c(Cl)c4)C3(Cl)Cl)ccc2Cl)CCC1` (stereo not drawn) [Molecule F14, trans-2-Chloro-N-(l-cyanocyclobutyl)-5-(2,2-dichloro-3-(3,4-dichlorophenyl)cyclopropanecarboxamido)benzamide], for which, in data set [1], the mortality at 200 ppm was 0 to 80%. In addition, the mortality at 50 µg/cm2 in data set [2] and in data set [4] was 50 to 100% in each case. In addition, the “YFM % Control (or Mortality) rating” value in data set [3] was “A (80-100)”.
